Counter-ions that a name gives are not always drawn. A value given as a limit tells only on which side of the number the result lay.

The values below come from patent US6451804B1, “Heteroalkylamino-substituted bicyclic nitrogen heterocycles” (Syntex (U.S.A.) LLC, priority 1999, dated 2002).

As to `O=C1Nc2nc(NCC3CCC(O)CC3)ncc2CN1c1ccccc1Cl` (centres unmarked) (as salt: hydrochloride) [Compound 4-17, 3-(2-chlorophenyl)-7-[(4-hydroxycyclohexylmethyl)amino]-3,4-dihydropyrimido[4,5-d]pyrimidin-2(1H)-one], the melting point (commonly the temperature, or range, at which the solid turns liquid) was in the range of 208.3 to 217.9 °C.
Next, `CN(C)C(=O)CN1CCC(CNc2ncc3c(n2)NC(=O)N(c2ccccc2Cl)C3)CC1` (as salt: hydrochloride) [Compound 2-19, 3-(2-chlorophenyl)-7-[(1-dimethylaminocarbonylmethylpiperidin-4-ylmethyl)amino]-3,4-dihydropyrimido[4,5-d]pyrimidin-2(1H)-one]: 210.2 to 214.4 °C; `CN1C(=O)N(c2ccccc2Cl)Cc2cnc(NC3CCC(=O)CC3)nc21` (as salt: hydrochloride) [Compound 3-46, 3-(2-chlorophenyl)-7-(4-oxo-cyclohexylamino)-1-methyl-3,4-dihydropyrimido[4,5-d]pyrimidin-2(1H)-one]: 233.4 to 236.3 °C.
Next, `C[C@@H](CO)Nc1ncc2c(n1)N(C1CCNCC1)C(=O)N(c1ccccc1Cl)C2` (as salt: hydrochloride): 244 to 248 °C; `Cc1ccccc1N1Cc2cnc(NC3CCN(CCC#N)CC3)nc2N(C)C1=O` (as salt: hydrochloride) [Compound 2-15, 7-[1-(2-cyanoethyl)-piperidin-4-ylamino]-1-methyl-3-ortho-tolyl-3,4-dihydropyrimido[4,5-d]pyrimidin-2(1H)-one]: 195 to 208.5 °C; `CNC(=O)O[C@H]1CC[C@H](Nc2ncc3c(n2)NC(=O)N(c2ccccc2Cl)C3)CC1` (as salt: hydrochloride) [Compound 4-22, 3-(2-chlorophenyl)-7-(trans-4-methylaminocarbonyloxycyclohexylamino)-3,4-dihydropyrimido[4,5-d]pyrimidin-2(1H)-one]: 269 to 271 °C.
On to `N#CCN1C(=O)N(c2ccccc2Cl)Cc2cnc(N[C@H]3CC[C@H](O)CC3)nc21` [Compound 3-55, 3-(2-chlorophenyl)-7-(trans-4-hydroxycyclohexylamino)-1-cyanomethyl-3,4-dihydropyrimido[4,5-d]-pyrimidin-2(1H)-one], for which the melting point came out at 130.8 °C.
Molecule `O=C(O)CN1CCC(CNc2ncc3c(n2)NC(=O)N(c2ccccc2Cl)C3)CC1` (as salt: hydrochloride) [Compound 2-24, 3-(2-chlorophenyl)-7-[(1-hydroxycarbonylmethylpiperidin-4-ylmethyl)amino]-3,4-dihydropyrimido[4,5-d]pyrimidin-2(1H)-one] came in with a melting point of 215 to 219 °C.
The molecule `CN1C(=O)N(c2ccccc2Cl)Cc2cnc(NC(C)(C)C(O)CO)nc21` (centres unmarked) (as salt: hydrochloride) [Compound 3-28, 3-(2-chlorophenyl)-7-(2,3-dihydroxy-1,1-dimethylpropylamino)-1-methyl-3,4-dihydropyrimido[4,5-d]pyrimidin-2(1H)-one] gave a melting point of 203.1 to 204.1 °C.
Next, `CC(=O)O[C@H]1CC[C@H](Nc2ncc3c(n2)NC(=O)N(c2ccccc2Cl)C3)CC1` (as salt: hydrochloride) [Compound 4-13, 7-(trans-4-acetyloxycyclohexylamino)-3-(2-chlorophenyl)-3,4-dihydropyrimido[4,5-d]pyrimidin-2(1H)-one]: above 300 °C; `C[C@@H](O)[C@H](CO)Nc1ncc2c(n1)N(C)C(=O)N(c1ccccc1Cl)C2` (stereo in doubt) (as salt: hydrochloride) [Compound 1-13, 3-(2-chlorophenyl)-7-((1S,2R)-2-hydroxy-1-hydroxymethyl-propylamino)-1-methyl-3,4-dihydropyrimido-[4,5-d]pyrimidin-2(1H)-one]: 199 to 204 °C.
